# Key:
# Format in all cases: cell-based
# [1] = system: Staphylococcus aureus ATCC# 6538; experiment: HRMIC synergy test, Gram positive bacteria; conditions: S. aureus, biocide alone
# Procedure: (§1) The combinations were evaluated for synergy by determining the synergy index (S.I.) of the combination. The Synergy index calculated is based on minimum inhibitory concentrations (MIC) of two biocides (A and B) alone and in combinations. The lower the S.I. value, the better the synergy. High Resolution Minimum Inhibitory Concentration (HRMIC) method was performed to determine the potential for synergy of the combinations. The tests organisms were gram negative bacteria (Pseudomonas aeruginosa), Gram positive bacteria (Staphylococcus aureus), yeast (Candida albicans) and mold (Aspergillus niger). Contact time for the bacteria was 24 and 48 hours, yeast was 48 and 72 hrs, 3 and 7 days for mold. The test was carried out in 96well microtiter plates. […] Ca/CA+Cb/CB=Synergy Index(“SI”) • CA=concentration of compound A in ppm, acting alone, which produced an end point (MIC of Compound A). • Ca=concentration of compound A in ppm, in the mixture, which produced an end point. • CB=concentration of compound B in ppm, acting alone, which produced an end point (MIC of Compound B). • Cb=concentration of compound B in ppm, in the mixture, which produced an end point. When the sum of Ca/CA and Cb/CB is greater than one, antagonism is indicated. […] [table] [table]
# [2] = system: Aspergillus niger ATCC# 16404; experiment: HRMIC synergy test, mold; conditions: A. niger, biocide alone
# Procedure: as §1
# [3] = system: Pseudomonas aeruginosa ATCC # 15442; experiment: HRMIC synergy test, gram negative bacteria; conditions: Ps. aeruginosa, contact time 24 hrs, biocide alone
# Procedure: as §1
# [4] = system: Candida albicans ATCC#10203; experiment: HRMIC synergy test, yeast; conditions: C. albicans, biocide alone
# Procedure: as §1
structure (smiles),measurement,setting,value
"Cc1ccc(S(=O)(=O)C(I)I)cc1 [DIMTS, diiodomethyl-p-tolylsulfone]",MIC alone (CA / CB),[1]; contact time 24 hrs,30 ppm AI
same,MIC alone (CA / CB),[1]; contact time 48 hrs,400 ppm AI
same,MIC alone (CA / CB),[2]; contact time 3rd day,0.3 ppm AI
same,MIC alone (CA / CB),[2]; contact time 7th day,0.5 ppm AI
same,MIC alone (CA / CB),[3],>1000 ppm AI
same,MIC alone (CA / CB),[4]; contact time 48 hrs,20 ppm AI
same,MIC alone (CA / CB),[4]; contact time 72 hrs,30 ppm AI

# Reference: patent US20140147410A1, “MICROBICIDE COMBINATIONS CONTAINING SILVER” (priority 2011, published 2014)
